Patent US10149887B2, “Peptides and peptidomimetics in combination with t cell activating and/or checkpoint inhibiting agents for cancer treatment” (CanBas Co., Ltd., priority 2015, dated 2018)
Square brackets hold non-standard residues; d marks the D form. Peptide text beside a SMILES is read from it. dPhe(F5) = N[C@H](Cc1c(F)c(F)c(F)c(F)c1F)C(=O)O; dBpa = N[C@H](Cc1ccc(C(=O)c2ccccc2)cc1)C(=O)O; dCha = N[C@H](CC1CCCCC1)C(=O)O

How the values were obtained:
HUVEC = assay: G2 checkpoint abrogation by CBP501 combined with cis-platin, flow cytometry; assay type: cell-based, human; conditions: umbilical vein endothelium, cis-platin 3 μg/ml 3 hr, then 45 hr
Protocol: The medium was aspirated, fresh medium without these compounds was added and the cells were incubated for an additional 45 hr. The cells including floating cells were harvested using trypsin-EDTA solution, incubated with Krishan's solution and analyzed for DNA content by flow cytometry as previously described.

[1] = Human serum treatment analysis (residual G2 checkpoint abrogating activity); assay type: in vitro ADME; conditions: 37 degrees
Protocol: Serum analysis was performed to determine the stability of peptides in mouse and human serum. Briefly, peptides (10 mM or 2.5 mM) were incubated with freshly prepared human serum at 37 degrees for 1 hr. […] Jurkat cells were treated with the serum with or without peptides and bleomycin (40 μg/ml) and incubated for 24 hr. The population of G2 phase cells was determined by flow cytometry as previously described. The residual G2 checkpoint abrogating activity of serum treated peptides were determined by comparing the % G2 cells of the treated serum and the standard curve produced with medium treated peptides, bleomycin and Jurkat cells (Table 5A).

neutrophils = assay: NET formation by activated neutrophils (elastase activity); assay type: cell-based, human; conditions: 1 μM CBP501; PMA, A23187 or LPS
Text: Referring to FIG. 17, Neutrophils were purified with EasySep neutrophil enrichment kit (Stemcell technol.) from human peripheral blood after removal of red blood cells with Hetasep (Stemcell technol.).

M1 and M2 macrophages = assay: Phagocytic activity of M1 and M2 macrophages (fluorescent beads, flow cytometry); assay type: cell-based, human; conditions: in vitro
Protocol: Referring to FIGS. 19A and 19B, macrophages were obtained by stimulating human peripheral blood mononuclear cells by 0.32 uM of PMA and removing all suspension cells 48 hours of PMA stimulation. The cells were further incubated with 50 ng/ml IFN-gamma, 10 ng/ml LPS to obtain M1 phenotype, and 20 ng/ml IL-4 to obtaine M2 macrophages. Both treatment was with or without CBP501. The phagocytic activity was monitored by using fluorescent labelled beads and flow cytometry.

RAW264.7 = assay: TNF release from macrophage cell line RAW264.7 (ELISA); assay type: cell-based, mouse; conditions: 0.1 or 1 μM CBP501, LPS
Protocol: The released TNF were measured by ELISA.

CT26WT cells = conditions: 3 hours treatment, two days later
Protocol: Two days later, the cell cycle phase distribution (Y-axis) and cell death was analyzed by BD FACSCalibur by propidium iodide staining.
For cell cycle analysis, cells collected by trypsine/EDTA (Gibco) were stained with Krishan's buffer (0.1% sodium citrate, 50 Ag/mL propidium iodide, 20 Ag/mL RNase A, 0.5% NP40) followed by flow cytometry using FACSCalibur (Becton Dickinson).

With N=C(N)NCCC[C@@H](NC(=O)[C@@H](CCCNC(=N)N)NC(=O)[C@@H](CCC(N)=O)NC(=O)[C@@H](CCCNC(=N)N)NC(=O)[C@@H](CCCNC(=N)N)NC(=O)[C@@H](CCCNC(=N)N)NC(=O)[C@@H](CC1CCCCC1)NC(=O)[C@@H](Cc1c(F)c(F)c(F)c(F)c1F)NC(=O)[C@@H](CO)NC(=O)[C@@H](Cc1c[nH]c2ccccc12)NC(=O)[C@@H](CO)NC(=O)[C@H](N)Cc1ccc(C(=O)c2ccccc2)cc1)C(=O)O [CBP501, (d-Bpa)(d-Ser)(d-Trp)(d-Ser)(d-Phe-2,3,4,5,6-F)(d-Cha)(d-Arg)(d-Arg)(d-Arg)(d-Gln)(d-Arg)(d-Arg)] (H-[dBpa][dS][dW][dS][dPhe(F5)][dCha][dR][dR][dR][dQ][dR][dR]-OH; N-terminus and C-terminus assumed) the “G2 checkpoint abrogating dose of CBP501, cis-platin” value (HUVEC) was over 50 µM, the “Residual activity of peptide after 1 hr human serum treatment” value [1] was >50% of original and the “NET formation by activated neutrophils” value (neutrophils) was “increased NET formation”. The “Phagocytosis of M1 and M2 macrophages” value (M1 and M2 macrophages) was “inhibited phagocytosis of both M1 and M2 macrophages”, the “Cytokine secretion (TNF release) of macrophages” value (RAW264.7) was “Inhibition of cytokine secretion” and the “Potency in changing cell cycle phase distribution, CDDP combined with CBP501 vs CDDP alone” value (CT26WT cells) was “about 2 times”.
